Entries after “also recorded” stand apart in the source; their conditions may differ.
What was measured:
[1] = system: U87MG glioblastoma cell line; assay: BrdU incorporation, S-phase entry, U87MG; type: cell-based; settings: null for p16 and PTEN
Protocol: (§1) Proliferation assays. Bromodeoxyuridine (BrdU) labeling kits were obtained from Roche Biochemicals (Indianapolis, Ind.). Cells were plated in poly-D-lysine coated chamber slides at a density of 10,000 cells per well and rendered quiescent by serum starvation for 24 hours. Cells were then re-stimulated with serum in the presence or absence of the indicated drugs for 18 h. S-phase cells were visualized by microscopy and quantitated by counting 3 fields of 100 in quadruplicate.

[2] = molecular target: T1, Rb/E2F1 interaction in tumor xenografts (Homo sapiens, UniProt P06400+Q01094); assay: IP-Western of tumor lysates, Rb/E2F1; type: in vivo, nude mice; settings: both doses
T1 construct: from tissue; host or cells: A549 xenograft tumors from nude mice
T1 sequence (P06400 whole entry): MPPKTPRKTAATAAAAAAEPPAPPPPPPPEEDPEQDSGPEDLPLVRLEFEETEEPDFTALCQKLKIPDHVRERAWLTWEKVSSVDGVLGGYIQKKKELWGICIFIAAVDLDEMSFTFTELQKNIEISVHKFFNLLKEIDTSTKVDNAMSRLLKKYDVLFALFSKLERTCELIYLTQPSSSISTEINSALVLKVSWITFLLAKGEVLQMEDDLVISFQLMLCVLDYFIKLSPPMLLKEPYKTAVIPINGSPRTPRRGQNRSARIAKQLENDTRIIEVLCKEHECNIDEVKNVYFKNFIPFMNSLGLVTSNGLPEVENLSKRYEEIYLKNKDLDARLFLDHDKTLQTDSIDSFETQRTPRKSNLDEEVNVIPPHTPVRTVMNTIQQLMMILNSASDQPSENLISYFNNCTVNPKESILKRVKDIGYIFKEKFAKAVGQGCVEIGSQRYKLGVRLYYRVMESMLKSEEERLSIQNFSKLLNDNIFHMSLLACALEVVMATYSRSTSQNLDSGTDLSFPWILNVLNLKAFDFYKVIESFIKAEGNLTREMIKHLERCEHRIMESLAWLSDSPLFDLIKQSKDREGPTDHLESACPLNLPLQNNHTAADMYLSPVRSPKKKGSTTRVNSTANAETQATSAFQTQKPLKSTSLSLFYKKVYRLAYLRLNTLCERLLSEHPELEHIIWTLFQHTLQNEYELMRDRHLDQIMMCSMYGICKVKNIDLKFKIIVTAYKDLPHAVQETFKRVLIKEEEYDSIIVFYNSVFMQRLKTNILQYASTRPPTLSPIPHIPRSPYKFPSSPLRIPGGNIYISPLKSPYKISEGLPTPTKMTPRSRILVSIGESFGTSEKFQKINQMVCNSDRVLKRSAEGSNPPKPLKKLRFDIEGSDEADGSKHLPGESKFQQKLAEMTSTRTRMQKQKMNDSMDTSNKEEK
T1 sequence (Q01094 whole entry): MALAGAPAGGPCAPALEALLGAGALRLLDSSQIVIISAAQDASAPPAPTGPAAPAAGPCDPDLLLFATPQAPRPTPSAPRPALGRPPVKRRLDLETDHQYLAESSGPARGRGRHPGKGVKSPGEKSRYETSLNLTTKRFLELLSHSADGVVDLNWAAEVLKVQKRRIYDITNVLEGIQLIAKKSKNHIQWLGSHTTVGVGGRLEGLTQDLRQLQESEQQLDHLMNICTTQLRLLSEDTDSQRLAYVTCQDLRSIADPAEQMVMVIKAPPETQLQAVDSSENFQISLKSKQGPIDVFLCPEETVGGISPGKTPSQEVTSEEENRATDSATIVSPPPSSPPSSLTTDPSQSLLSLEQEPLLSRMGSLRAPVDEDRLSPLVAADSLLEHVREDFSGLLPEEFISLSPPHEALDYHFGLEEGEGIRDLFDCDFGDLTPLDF

A375 melanoma cell line = assay: BrdU incorporation, S-phase entry, A375; type: cell-based; settings: V600E B-Raf
Protocol: as §1
A V600E mutation in the B-Raf oncogene is associated with 66% of melanomas and leads to an over-activation of phospho-Erk signaling. The A375 melanoma cell line harbors the V600E B-Raf mutation. Using the methods of the preceding examples, 3a was inhibited 58% of S-phase entry in this cell line.

A549-sh8 tumors = assay: A549-sh8 (Rb shRNA) xenograft in nude mice; type: in vivo; settings: 150 mpk orally
Protocol: Animal Studies. Nude mice (Charles River, Wilminton, Mass., USA) were maintained in accordance with Institutional Animal Care and Use Committee (IAUCUC) procedures and guidelines. A549 cells were harvested and resuspended in PBS, and then injected s.c. into the right and left flanks (10×10^6 cells per flank) of 8-week old female nude mice as reported previously (Sun 99). When tumors reached about 100-200 mm^3, animals were dosed intraperitoneally i.p. or orally by gavage with 0.1 mL solution once daily. Control animals received a vehicle, whereas treated animals were given 3a or RRD-238a at the indicated doses. The tumor volumes were determined by measuring the length (l) and the width (w) and calculating the volume (V=lw^2/2) as described previously (Sun 99). Statistical significance between control and treated animals were evaluated using Student's t-test.
Athymic nude mice were implanted with 1×10^7 A549 cells bilaterally and the tumors were allowed to reach 200 mm^3 in size before treatment began. […] Furthermore, to examine whether 3a could affect the growth of tumors lacking Rb in vivo, sh6 and sh8 (shRNA for Rb) cell lines were implanted into the flanks of nude mice. The mice were given 3a orally at 150 mpk and the control groups were administered the vehicle.

Rb:Raf-1 binding = molecular target: T2, Rb:Raf-1 binding (Homo sapiens, UniProt P04049+P06400); assay: GST-Rb/GST-Raf-1 ELISA; settings: concentration that inhibits the Rb:Raf-1 binding by 50%, triplicate; read-out: IC50 (nM), inhibition of the Rb:Raf-1 binding
T2 construct: a glutathione S-transferase (GST) Raf-1 (1-149aa) overnight at 4° C; made in house
T2 sequence (P04049 1-149 limits assumed): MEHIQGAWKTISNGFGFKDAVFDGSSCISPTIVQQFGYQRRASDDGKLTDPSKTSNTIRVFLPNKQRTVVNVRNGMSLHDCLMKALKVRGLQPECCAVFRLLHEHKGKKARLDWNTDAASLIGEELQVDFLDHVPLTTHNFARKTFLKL
T2 sequence (P06400 whole entry): as the sequence (P06400 whole entry) above
Protocol: In vitro library screening assays. Enzyme Linked ImmunoSorbent Assay (ELISA) 96-well plates were coated with 1 μg/mL of a glutathione S-transferase (GST) Raf-1 (1-149aa) overnight at 4° C. Subsequently the plates were blocked and GST Rb at 20 μg/mL was rotated at room temperature (RT) for 30 minutes in the presence or absence of the compounds at 20 micromolar (μM). GST-Rb +/− compounds were then added to the plate and incubated for 90 minutes (min) at 37° C. The amount of Rb bound to Raf-1 was detected by Rb polyclonal antibody (Santa Cruz Biotechnology, Santa Cruz, Calif.) 1:1000 incubated for 60 min at 37° C. Donkey-anti-rabbit-IgG-HRP (1:10,000) was added to the plate and incubated at 37° C. for 60 minutes. The color was developed with orthophenylenediamine (Sigma, St. Louis, Mo.) and the reaction was terminated with 3 molar (M) H2SO4. Absorbance was read at 490 nanometers (nm). To determine disruption of Rb to E2F1, Phb, or HDAC1 the above protocol was used with the exception of coating GST Rb on the ELISA plate and adding the drugs in the presence or absence of GST E2F1, Phb, or HDAC1. […] Prohibitin monoclonal antibody was used at 1:1000 to detect the amount of Rb bound to Prohibitin. For disruption of MEK-Raf-1 binding ELISAs, Raf-1 1 microgram/milliliter (μg/mL) was coated on the plate and GST-MEK (20 μg/mL) was incubated +/− the compounds for 30 minutes at room temperature. Mek1 polyclonal antibody was used at 1:1000 to detect the binding of Raf-1 to Mek1. The IC50 concentrations for the Rb:Raf-1 inhibitors were determined by plotting with Origin 7.5 software (Origin, Northampton, Mass.).
A screen was developed to identify small molecule inhibitors of the Rb:Raf-1 interaction. A diversity set, comprising 1981 compounds (National Cancer Institute, Bethesda, Md.) was examined using a glutathione S-transferase-retinoblastoma/glutathione S-transferase-Raf-1 kinase Enzyme-Linked ImmunoSorbent Assay screen (GST-Rb/GST-Raf-1 ELISA).

[3] = system: A549 cells infected with Ad-cyclin D; assay: BrdU incorporation, A549 infected with Ad-cyclin D; type: cell-based, human; settings: 20 μM of 3a for 36 h
Protocol: as §1
To this end, A549 cells were infected with Ad-E2F1 or Ad-cyclin D, in the presence of 20 μM of 3a for 36 h. Ad-GFP infected cells were used as a control.

PC3 prostate cell line = assay: BrdU proliferation assay, PC3; type: cell-based
Protocol: as §1
Prostate cell lines LNCaP and PC3 both contain mutations in K-Ras and PTEN genes.

SK-MEL-5 cells = assay: Soft agar assay, SK-MEL-5; type: cell-based
Protocol: (§2) Soft Agar Assay. Soft agar assays were done in triplicate in 12-well plates (Corning, Corning N.Y.). First, the bottom layer of agar (0.6%) was allowed to solidify at room temperature. Next the top layer of agar was (0.3%) was mixed with 5,000 cells per well and the indicated drug. The drugs were added twice weekly in complete media to the agar wells. Colonies were quantified by staining with MTT (3-(4,5-Dimethylthiazol-2-yl)-2,5-diphenyltetrazolium bromide) 1 mg/mL for 1 hour at 37° C.
(§3) Experiments were also carried out to examine the effect of 3a in inhibiting the adherence-independent growth of cancer cells in soft agar.

[4] = molecular target: T3, binding of Rb to Raf-1 in A-549 cells (Homo sapiens, UniProt P04049+P06400); assay: IP-western, serum stimulated A-549 cells, Rb:Raf-1; type: cell-based
T3 construct: endogenous in cells; host or cells: A549
T3 sequence (P06400 whole entry): as above
T3 sequence (P04049 whole entry): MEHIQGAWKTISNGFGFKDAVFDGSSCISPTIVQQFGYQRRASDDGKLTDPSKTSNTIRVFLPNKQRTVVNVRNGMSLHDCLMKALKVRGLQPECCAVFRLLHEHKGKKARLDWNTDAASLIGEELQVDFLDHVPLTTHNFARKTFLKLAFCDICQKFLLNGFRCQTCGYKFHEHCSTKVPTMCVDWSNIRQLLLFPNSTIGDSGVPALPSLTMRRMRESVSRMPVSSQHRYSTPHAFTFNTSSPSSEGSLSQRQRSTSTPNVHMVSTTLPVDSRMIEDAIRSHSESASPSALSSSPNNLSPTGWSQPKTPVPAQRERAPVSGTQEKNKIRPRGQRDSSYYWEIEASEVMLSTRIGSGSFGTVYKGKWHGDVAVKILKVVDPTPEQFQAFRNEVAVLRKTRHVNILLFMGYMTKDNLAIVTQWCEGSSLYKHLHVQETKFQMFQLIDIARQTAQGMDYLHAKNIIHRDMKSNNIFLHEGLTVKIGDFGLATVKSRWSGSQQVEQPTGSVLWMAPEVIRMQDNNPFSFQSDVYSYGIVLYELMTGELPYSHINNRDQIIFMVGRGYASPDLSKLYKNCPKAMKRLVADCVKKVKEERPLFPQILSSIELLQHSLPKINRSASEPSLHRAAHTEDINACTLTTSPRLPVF
From the text: (§4) Lysate preparation, pmmunoprecipitation, and pestern plotting.

Rb binding to E2F1 = molecular target: T4, Rb binding to E2F1 (Homo sapiens, UniProt P06400+Q01094); assay: IP-western, A-549 cells, Rb-E2F1; type: cell-based
T4 construct: endogenous in cells; host or cells: A549
T4 sequence (P06400 whole entry): as the sequence (P06400 whole entry) above
T4 sequence (Q01094 whole entry): as the sequence (Q01094 whole entry) above
From the text: as §4

MDA-MB-231 cells = assay: BrdU proliferation assay, MDA-MB-231; type: cell-based, human
Protocol: as §1
The metastatic human breast cancer cell line MDA-MB-231 harbors a K-Ras mutation and overexpresses EGFR.

A549 cells = assay: Soft agar assay, A549; type: cell-based, human
Protocol: as §2, §3

## Cl.N=C(N)SCc1ccc(Cl)cc1Cl [Compound 3a]
[1]
  S-phase entry, U87MG: inhibited S-phase entry
[2]
  Rb/E2F1 interaction in tumor lysates: without inhibiting Rb-E2F1 interaction; also recorded: not Rb/E2F1 interaction
A375 melanoma cell line
  inhibition of S-phase entry, A375: 58%
A549-sh8 tumors
  tumor growth, A549-sh8 tumors lacking Rb: unable to inhibit tumor growth; also recorded: did not respond
Rb:Raf-1 binding
  IC50: 77 nM
[3]
  rescue of anti-proliferative activity by cyclin D over expression: only a partial effect
PC3 prostate cell line
  inhibition of proliferation, PC3: 35%
SK-MEL-5 cells
  adherence-independent growth in soft agar, SK-MEL-5: significantly inhibited the growth
[4]
  serum stimulated binding of Rb to Raf-1: inhibited
Rb binding to E2F1
  Rb binding to E2F1: not affected
MDA-MB-231 cells
  inhibition of proliferation, MDA-MB-231: 56%
A549 cells
  adherence-independent growth in soft agar, A549: significantly inhibited the growth

— patent US9656953B2, “Inhibition of cell proliferation” (University of South Florida, priority 2005, dated 2017)
